Our source for the K values is publication PMC10943693, “Evaluation of binding mechanism of dietary phytochemical, capsaicin, with human transferrin: targeting neurodegenerative diseases therapeutics” (Frontiers in Pharmacology, 2024).

In this experiment the target is T1, Human transferrin (htf) (Homo sapiens, UniProt P02787).
T1 construct: gene TF; commercial protein from Sigma Aldrich
The experiment is described as follows: intrinsic fluorescence quenching (excitation […] nm), modified Stern-Volmer plot. The format is binding. Particulars: 4 µM htf, 0-6 µM capsaicin; inner filter corrected; double-log.

SMILES strings stand for the structures.

T1 sequence (P02787 20-698): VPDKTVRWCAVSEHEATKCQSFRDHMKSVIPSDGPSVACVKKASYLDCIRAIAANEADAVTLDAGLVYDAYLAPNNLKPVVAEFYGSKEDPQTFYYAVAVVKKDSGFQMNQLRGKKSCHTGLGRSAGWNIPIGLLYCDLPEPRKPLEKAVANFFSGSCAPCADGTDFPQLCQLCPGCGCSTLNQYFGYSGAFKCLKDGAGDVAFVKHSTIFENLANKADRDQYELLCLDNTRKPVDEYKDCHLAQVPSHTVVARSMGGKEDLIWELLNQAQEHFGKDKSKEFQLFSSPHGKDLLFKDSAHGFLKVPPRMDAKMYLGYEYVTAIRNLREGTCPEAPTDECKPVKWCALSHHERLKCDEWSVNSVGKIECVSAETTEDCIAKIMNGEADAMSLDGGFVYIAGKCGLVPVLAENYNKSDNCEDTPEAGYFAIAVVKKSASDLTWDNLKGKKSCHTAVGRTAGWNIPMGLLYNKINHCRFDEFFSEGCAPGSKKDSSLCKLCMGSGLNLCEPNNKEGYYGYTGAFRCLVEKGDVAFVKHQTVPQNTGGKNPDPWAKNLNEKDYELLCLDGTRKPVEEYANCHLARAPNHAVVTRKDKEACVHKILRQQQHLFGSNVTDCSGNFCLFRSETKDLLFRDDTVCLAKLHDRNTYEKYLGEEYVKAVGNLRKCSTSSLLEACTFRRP

In the case of `COc1cc(CNC(=O)CCCC/C=C/C(C)C)ccc1O` [capsaicin, 8-methyl-N-vanillyl-6-nonenamide], the K is 3.99e+06 M⁻¹.
